Assay results reported in patent US20090149662A1, “PROCESSES FOR PREPARING ZAFIRLUKAST” (priority 2007, published 2009).

Experiment: Stability studies of amorphous zafirlukast under storage/stress conditions (XRD)
Format: physicochemical
Text: A sample of amorphous zafirlukast prepared using the above process was subjected to different conditions to determine the stability of the mixture under stress conditions.
The sample was packed in a clear polyethylene bag, tied with a tag, placed in a black polyethylene bag along with a silica pouch, which was filled with nitrogen, then sealed in a triple laminated bag, and finally sealed and stored in an HDPE drum.

Measured: Solid-form stability (XRD spectra) after storage

4-(5-cyclopentyloxy-carbonylamino-1-methyl-indol-3-ylmethyl)-3-methoxy-N-O-tolylsulfonylbenzamide [Amorphous form]
No change in XRD spectra: Long-term storage for 3 months, packed in polyethylene bags with silica pouch under nitrogen, triple laminated bag, HDPE drum | Storage at 25 + 5 C. and 60 + 5% RH, same packing | Storage at 40 + 5 C. and 70 + 5% RH, same packing
